Results as given in publication PMC6152407, “Molecular Mechanisms Underlying Inhibitory Binding of Alkylimidazolium Ionic Liquids to Laccase” (Molecules : A Journal of Synthetic Chemistry and Natural …, 2017).
pKi: −log10 of the molar value.

Legend:
Tve laccase = conditions: ABTS, pH 3, cited from earlier work
[1] = test system: Myceliophthora thermophila (Mth) laccase; type: biochemical
Procedure: (§1) Reaction velocities (vo) were determined by mixing 50 μL of the properly diluted enzyme, 50 μL of substrate solution, and 2.4 mL of the media containing phosphate–citrate buffer (30 mM) and ILs in a 1 cm × 1 cm × 4 cm quartz colorimetric cell. […] All the reported data were averaged from at least three parallel measurements.

[2] = molecular target: Myceliophthora thermophila (Mth) laccase; experiment: Inhibition kinetics of laccase/ABTS oxidation (Lineweaver–Burk); type: biochemical; conditions: laccase/ABTS oxidation at pH 3; read-out: competitive inhibition constant Kic
Procedure: as §1
A series of vo were measured under varied concentrations of substrate ([S]) and IL ([I]). The Lineweaver–Burk diagrams were then constructed by plotting 1/vo against 1/[S] to estimate Km and Vmax according to Equation (1). The features of inhibition by different ILs were also deduced from the diagrams. Ki was correspondingly calculated from Equations (2), (3) or (4).
(2) (Competitive) 1/v0=KM/Vmax[S](1+[I]/Kic)+ 1/Vmax

[3] = parameters: method as in PMID 26556325; conditions: 80% aqueous solution; cited from earlier work
[4] = Stability of ABTS cation radicals in ILs/buffer media; conditions: 30 mM buffer without IL
Procedure: ABTS cation radicals (ABTS^+) were obtained from the oxidation of ABTS (10 mmol/L) with the laccase (50 U/L) in […] phosphate–citrate buffer (pH 3) at 40 °C for 2 h. Then, the reaction mixtures were centrifuged in an ultrafiltration tube (molecular weight cutoff 10 kDa; Millipore, Bedford, MA, USA) at 9000× g for 10 min). Enzymes and polymerized substances were removed. The oxidized products were incubated with buffer (30 mM, pH 2~7) and ionic liquids (50 mM) at 25 °C for 6 min. The concentration of each product was monitored by the spectrophotometer.

**Q.** What does the source list for [Cl-].[Na+] [NaCl]?
**A.** uncompetitive constant Kiu (Tve laccase): 18.1 mM; pKi (Tve laccase; read-out: competitive constant Kic): 3.46

**Q.** With CCCCn1cc[n+](C)c1.[Cl-] [[Bmim]Cl] as the molecule, how does the retained laccase activity ([1]; pH 3) read?
**A.** 65~75%

**Q.** And the “initial activity retained by re-dissolved complex” value (Mth laccase)?
**A.** 65%

**Q.** With CCCCCCCCCCn1cc[n+](C)c1 [[Dmim]Cl] as the molecule, how does the pKi [2] read?
**A.** 3.74

**Q.** And the “laccase inactivation” value ([1]; 50 mM IL, ABTS, pH 3 (Figure 2d))?
**A.** almost completely inactivated

**Q.** With CCCCCCCC[n+]1ccn(C)c1 [[Omim]Cl] as the molecule, how does the pKi [2] read?
**A.** 2.67

**Q.** With CC(C)=O [acetone] as the molecule, how does the “time for 50% reduction of ABTS^+” value [3] read?
**A.** ≤ 7 min

**Q.** With ABTS^+ as the molecule, how does the “half-life of ABTS^+” value ([4]; pH 2) read?
**A.** 6.17 h

**Q.** What about the “half-life of ABTS^+” value ([4]; pH 7) of the same molecule?
**A.** 0.728 h

**Q.** Which “activity loss compared with other salts” value ([1]; pH 3) does the source give for KCl here?
**A.** more activity loss than alkylimidazolium chlorides
